What was measured:
p53-Y220C = biological target: T1, p53-Y220C (Homo sapiens, UniProt P04637, M133L/N239Y/N268D/V203A/Y220C); experiment: Differential scanning fluorimetry (DSF); assay type: binding; details: 100 μM compound; 8 µM p53-Y220C; read-out: Protein thermal stability ΔTm
T1 construct: (residues 94-312); 6xHis/lipoyl domain/TEV protease cleavage site (N, cleaved yes); made in house; host or cells: E. coli C41
Source text: (§1) We also probed the general effect of 2-SPs on protein stability by using differential scanning fluorimetry (DSF). […] Mutants of the 25 kDa DNA-binding domain of the tumor suppressor p53 are notorious for their reduced thermal stability and denaturation/aggregation propensity.[37] The 56 kDa armadillo domain (ARD) of β-catenin mediates canonical Wnt signaling and plays a central role in embryogenesis and tissue homeostasis.[38] FGE (37 kDa) is the only known activator of human sulfatases, and its stability is susceptible to modification of its cysteines.[39] […]
described.7 Briefly, the N-terminal fusion protein (6xHis/lipoyl domain/TEV protease cleavage site) was overexpressed using E. coli C41 cells in 2xTY medium at 20°C for 16 h and purified using standard Ni-affinity chromatography protocols. […]
was further purified using a Heparin column. Finally, gel filtration chromatography was performed using a Superdex 75 16/60 preparative gel filtration column (GE Healthcare) in a 25 mM KPi (pH 7.2), 150 […]
mM NaCl, and 1 mM TCEP buffer. […]
gel electrophoresis and ESI-MS. […]

[1] = Hydrolytic stability in KPi buffer without thiol (NMR); assay type: physicochemical; details: for % degradation: over 12 hours, 50 mM KPi, footnote a: crashing out of solution, no degradation product; for hydrolysis in aqueous buffer (in words): buffer in the absence of GSH
Experimental: NMR studies: rate constant determination and hydrolytic stability. 850 µL of 50 mM Kpi buffer solution (pH 8.2 or 7), 20 µL of the appropriate pyrimidine stock s olution (100 mM in DMSO -d6), 20 µL of TMSP stock solution (22.2 mM in DI water), 30 µL DMSO -d6, and 80 µL of GSH stock solution (0.25 M in DI water, reactivity only) were successively added/mixed at room temperature, final pH 7.0 or 6.5 (Table S1). 600 µL of this freshly prepared solution was poured into an NMR tube and immediately […]
transferred to the NMR instrument for acquisition. 1H spectra (16 scans) were recorded every 10 minutes under water suppression conditions. Following acquisition, spectra were analysed using […]
order reaction rate constants (k’).

FGE-C341S = biological target: T2, FGE-C341S (Homo sapiens, UniProt Q8NBK3, C341S); experiment: Differential scanning fluorimetry (DSF); assay type: binding; details: 100 μM compound; 10 µM FGE; read-out: Protein thermal stability ΔTm
T2 construct: His7 (C); made in house; host or cells: High Five insect cells (baculovirus, pAcGP67B-His7)
T2 sequence (Q8NBK3 34-374 C341S): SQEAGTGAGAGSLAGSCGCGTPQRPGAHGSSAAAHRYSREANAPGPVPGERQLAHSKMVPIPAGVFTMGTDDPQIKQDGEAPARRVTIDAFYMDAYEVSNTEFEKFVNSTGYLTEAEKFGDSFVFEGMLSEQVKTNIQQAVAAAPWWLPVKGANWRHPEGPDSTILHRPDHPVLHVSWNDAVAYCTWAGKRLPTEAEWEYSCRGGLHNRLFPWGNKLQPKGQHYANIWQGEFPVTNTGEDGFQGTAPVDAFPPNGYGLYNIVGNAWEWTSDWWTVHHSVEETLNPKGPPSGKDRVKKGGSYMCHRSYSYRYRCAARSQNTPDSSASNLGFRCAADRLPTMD
Source text: as §1
The cloning of human FGE-WT cDNA into baculoviral transfer vector pAcGP67B-His7 and the generation of the recombinant virus (in Sf9 cells) for expression of C-terminally His-tagged recombinant human FGE in High Five insect cells have been […]
were generated by site -directed PCR mutagenesis using pAcGP67B-FGE-WT-His7 as template and the […]
-3’. All expression plasmids were verified by sequencing of the entire coding region to exclude any undesired PCR -derived errors. The purification method was essentially performed as described in Peng et al., with one modification. The size exclusion […]
chromatography (His -trap) step foll owed directly by a second step purification using the ion -exchange column chromatography (Resource -Q). […]

p53-Y220C DBD = biological target: T3, p53-Y220C DBD (Homo sapiens, UniProt P04637, M133L/N239Y/N268D/V203A/Y220C); experiment: Protein arylation by ESI mass spectrometry; assay type: binding
T3 construct: (residues 94-312); 6xHis/lipoyl domain/TEV protease cleavage site (N, cleaved yes); made in house; host or cells: E. coli C41
Experimental: In mass spectrometry experiments, we incubated 50 μM purified p53-Y220C DBD in KPi buffer at varying pH’s (6.0–8.0), temperatures (0 and 20 °C), and equivalents of 2-SPs (20–100). Representative 2-SPs were selected to span a broad reactivity range to determine whether trends observed in GSH in vitro assays translate to relative rates of modification of solvent exposed cysteines in folded proteins. […] The same could also be achieved with only 20 equiv of reagent by increasing the temperature to 20 °C, or raising the pH to 8.0. This is an important result because late-stage protein functionalization with bromo- and iodo-(hetero)aromatic motifs is challenging and inaccessible by metal-catalyzed arylation methodologies due to dehalogenation and/or off-target specificity. The introduction of an iodo-(hetero)aromatic motif on the protein surface facilitates drastically the crystal structure resolution with a sharp variation of density. […] Overall, we observed good correlation between GSH and protein experiments.
Figure 4 Biophysical and structural characterization of protein cysteine arylation by 2-SPs. […] Stoichiometry, reaction time/temperature, and pH are indicated in each case. X axis: m/z (Da). Y axis: normalized intensities as a percentage of the most intense peak. Middle: Structure of the modified Y220C mutant (green) superimposed onto the structure of the unmodified protein (gray, PDB entry 6SHZ)[40] showing the region around modified C182 (E) and C277 (F). Hydrogen bonds formed by the pyrimidine are highlighted as dashed yellow lines. 2Fo – Fc electron density maps are shown at a contour level of 1.3σ for segments of chain B including the modified residues C182 and C277. Bottom (F): Protein thermal stability (ΔTm, °C) of p53-Y220C, β-catenin ARD. and FGE, determined by DSF in the presence of 100 μM 2-SP derivatives. […]

ΔTm at 100 µM (p53-Y220C) | melting point | % degradation ([1]; pH 7.0) | % degradation ([1]; pH 8.2) | ΔTm at 100 µM (FGE-C341S) | hydrolysis in aqueous buffer (in words) [1] | protein arylation by ESI-MS (in words) (p53-Y220C DBD; 100 equiv, 0 °C, pH 7.2) | time to selective double arylation (p53-Y220C DBD; 100 equiv, 0 °C, pH 7.2) | Structure (SMILES) | protein modification by ESI-MS (in words) (p53-Y220C DBD; 50 μM protein, all conditions tested, even after 4 h at 20 °C)
0.2 °C | 115 to 118 °C | < 5% | < 5% | -0.4 ± 0.3 °C | – | – | – | CS(=O)(=O)c1nccc(C(=O)O)n1 [4d] | –
1.8 °C | 82 °C | 17% | 65% | -0.6 °C | partial, slow hydrolysis | – | – | CS(=O)(=O)c1nccc(C(F)(F)F)n1 [4l] | –
1.8 °C | 91 to 92 °C | 100% | 100% | -0.6 °C | – | – | – | O=S(=O)(CC(F)(F)F)c1ncccn1 [5e] | –
0.4 °C | 225 °C | 100% | 100% | -0.4 ± 0.3 °C | – | – | – | O=[N+]([O-])c1ccc(S(=O)(=O)c2ncccn2)cc1 [5f] | –
0 °C | – | < 5% | – | 0 °C | – | – | – | Cc1cc(C)nc(S(C)(=O)=O)n1 [4a] | could not detect any protein modification
0.4 °C | – | < 5% | < 5% | -0.4 ± 0.3 °C | – | completely selective double arylation | 2.5 h | CS(=O)(=O)c1ncc(Br)cn1 [4t] | –
0.4 °C | 56 °C | < 5% | 14% | -0.2 ± 0.3 °C | – | completely selective double arylation | – | CS(=O)(=O)c1ncc(I)cn1 [4u] | –
0.2 °C | – | < 5% | 50% | -0.2 ± 0.3 °C | – | – | – | CS(=O)(=O)c1nccc(-c2ccccc2)n1 [4e] | –
0 °C | – | 12% | 10% | -0.4 ± 0.3 °C | – | – | – | O=S(=O)(c1ccccc1)c1ncccn1 [5d] | –
0.2 °C | – | – | < 5% | 0 °C | – | – | – | O=S(=O)(NCc1ccccc1)c1ncccn1 [5g] | –
-0.2 ± 0.1 °C | – | – | – | 0 °C | – | – | – | COc1cc(OC)nc(S(C)(=O)=O)n1 [4f, 4,6-dimethoxy-2-methylsulfonylpyrimidine] | –
-0.2 ± 0.1 °C | – | < 5% | < 5% | -0.6 °C | – | – | – | CS(=O)(=O)c1ncccn1 [4q, 2-methylsulfonylpyrimidine] | –
-0.2 ± 0.1 °C | 166 °C | 5% | – | -0.4 ± 0.3 °C | – | – | – | CS(=O)(=O)c1nccc(N)n1 [4g] | –
0.8 °C | – | 97% | 100% | -0.6 °C | partial, slow hydrolysis | – | – | CS(=O)(=O)c1ncc(C(F)(F)F)cn1 [4x] | –
-0.2 ± 0.1 °C | – | – | 10% | -0.6 °C | – | – | – | Cc1ccnc(S(C)(=O)=O)n1 [4c] | –
0.8 °C | – | – | – | -0.6 °C | – | – | – | CS(=O)(=O)c1ncc(Br)c(C(=O)O)n1 [4i] | –
0 °C | – | – | – | -0.4 ± 0.3 °C | – | – | – | CCCCS(=O)(=O)c1ncccn1 [5c] | –
0.2 °C | 58 °C | < 5% | – | -0.2 ± 0.3 °C | – | – | – | CC(C)(C)S(=O)(=O)c1ncccn1 [5a] | –
3 °C | 138 °C | 18% | – | -0.4 ± 0.3 °C | – | – | – | CS(=O)(=O)c1ncc(C(=O)O)cn1 [4v] | –
-0.2 ± 0.1 °C | 200 to 201 °C | – | – | -0.4 ± 0.3 °C | – | – | – | Nc1ccc(S(=O)(=O)c2ncccn2)cc1 [5b] | –
-0.2 ± 0.1 °C | – | – | – | -0.6 °C | – | – | – | CS(=O)(=O)c1nccc(C(N)=O)n1 [4j] | –
0.2 °C | 180 °C | 78% | 78% | -0.2 ± 0.3 °C | – | – | – | CS(=O)(=O)c1ncc(-c2ccccc2)cn1 [4p] | –
0.4 °C | 80 °C | 77% | 100% | -0.4 ± 0.3 °C | – | – | – | COC(=O)c1ccnc(S(C)(=O)=O)n1 [4k] | –
0.4 °C | – | 100% | 100% | -0.2 ± 0.3 °C | – | – | – | O=S(=O)(Oc1c(F)c(F)c(F)c(F)c1F)c1ncccn1 [5h] | –
0.2 °C | 60 °C | – | – | 0 °C | – | – | – | COc1ccnc(S(C)(=O)=O)n1 [4b] | –

From PMC10515483, “Structure–Reactivity Studies of 2-Sulfonylpyrimidines Allow Selective Protein Arylation” (Bioconjugate Chemistry, 2023)
